Legend:
Type in all cases: in vivo
Aphis gossypii = assay: Pest control test of Aphis gossypii, cucumber leaf disk foliar spray; details: Aphis gossypii, 72 h, first instar larvae, three days after release; for mortality at 100 ppm: foliar treatment at 100 ppm; for mortality at 100 ppm / mortality at 20 ppm: read-out: mortality of larvae; for mortality at 20 ppm: foliar treatment at 20 ppm
Procedure: Test Example 3 Pest Control Test of Aphis gossypii
(§1) A leaf disk having a diameter of 2.0 cm was cut out from a cucumber in pot culture, and a drug solution of the compound of the present invention at a predetermined concentration, which had been prepared so as to be a 50% acetone water (0.05% Tween20 available), was sprayed to the leaf disk. After an air drying process, first instar larvae were released thereto. Thereafter, the larvae were left to stand in a thermostatic chamber (16 hours of light period-8 hours of dark period) at 25° C. […] Test in duplicate.
(§2) Mortality of larvae(%)={number of dead larvae/(number of survived larvae+number of dead larvae)}×100

[1] = tested on: imidacloprid susceptible populations of Nilaparvata lugens; assay: Soil irrigation test, imidacloprid susceptible populations of Nilaparvata lugens
Procedure: (§3) A rice seedling in pot culture was subjected to soil irrigation treatment with a drug solution of the compound of the present invention at a predetermined concentration, which had been prepared so as to be a 10% acetone water. […] Thereafter, the larvae were left to stand in a thermostatic chamber (16 hours of light period-8 hours of dark period) at 25° C. […] The test was performed in duplicate.
as §2
Further, for comparison, the test against some population of Nilaparvata lugens which is highly susceptible to imidacloprid was performed by the same method as described above, and the results thereof are shown in Table 43.
(§4) Further, for the origin of test pests, bugs collected outdoors within the Kumamoto prefecture in 2007 as the drug resistant Nilaparvata lugens, and bugs collected within the Kagoshima prefecture and then successively reared indoors for a long time as the imidacloprid susceptible populations of Nilaparvata lugens were used.

[2] = tested on: Nilaparvata lugens exhibiting drug resistance to imidacloprid; details: soil irrigation
Procedure: Test Example 18 Pest Control Test of Drug-Resistant Nilaparvata lugens
as §3, §2, §4

Musca domestica = assay: Pest control test of Musca domestica adults, sucrose pledget; details: 50 ppm in 40% sucrose liquid; four days after release
Procedure: Test Example 21 Pest Control Test of Musca domestica
A drug solution of the compound of the present invention, which had been adjusted to be 50 ppm with a 40% sucrose liquid, was adsorbed on a pledget, and the pledget was put into a vial. Two adults reared indoors were released thereto. Thereafter, the adults were left to stand indoors at room temperature of 25° C. […] When two adults were all agonized in death, it was judged to be effective.

Plutella xylostella = Plutella xylostella control test, cabbage leaf disk foliar spray; details: Plutella xylostella, 72 h; foliar treatment at 100 ppm; second instar larvae; three days after release; read-out: mortality of larvae
Procedure: Test Example 1 Plutella xylostella Control Test
as §1, with “5.0” for “2.0”, “cabbage” for “cucumber”, “second” for “first”
mortality larvae(%)={number of dead larvae/(number of survived larvae+number of dead larvae)}×100

[3] = tested on: Trigonotylus caelestialium; assay: Pest control test of Trigonotylus caelestialium, wheat seedling dipping; details: Trigonotylus caelestialium, 72 h; dipping treatment of the drug solution at 10 ppm; three days after treatment; read-out: mortality of larvae
From the text: Test Example 8 Pest Control Test of Trigonotylus caelestialium
Wheat seedling leaves and stems four days after the dissemination of seedlings were dipped for 30 seconds in a drug solution of the compound of the present invention at a predetermined concentration, which had been prepared so as to be a 50% acetone water (0.05% Tween20 available). After an air drying process, the wheat seedling leaves and stems were placed into a glass tube, and two second instar larvae of Trigonotylus caelestialium were released to the same glass tube. After the larvae were released, the tube was lidded to leave the larvae to stand in a thermostatic chamber at 25° C. In order to supply water to the wheat during the test, water was given to the wheat from the bottom of the glass tube.
as §2

[4] = tested on: Frankliniella occidentalis; assay: Pest control test of Frankliniella occidentalis, kidney bean leaf disk foliar spray; details: Frankliniella occidentalis, 72 h; foliar treatment at 100 ppm; first instar larvae; three days after release; read-out: mortality of larvae
From the text: Test Example 7 Pest Control Test of Frankliniella occidentalis
as §1, with “2.8” for “2.0”, “kidney bean” for “cucumber”
as §2

| Structure (SMILES) | activity against adults (effective when two adults were all agonized in death) (Musca domestica) | also measured |
| --- | --- | --- |
| O=C(/N=c1\ccccn1Cc1ccc(Cl)nc1)OCC(F)(F)F [Compound 1-17, 2,2,2-trifluoroethyl-[1-((6-chloropyridin-3-yl)methyl)pyridin-(2H)-ylidene]carbamate] |  | mortality at 100 ppm (Aphis gossypii): ≥ 80%; mortality at 500 ppm (Aphis gossypii; foliar treatment at 500 ppm): ≥ 80% |
| FC(F)(Cl)C(=S)N=c1ccccn1Cc1ccc(Cl)nc1 [Compound 1-22] | all the adults are agonized in death | Insecticidal effects against Nilaparvata lugens (mortality of larvae %), Susceptible populations three days after the treatment ([1]; Rate 0.05 mg/pot): 75%; Insecticidal effects against Nilaparvata lugens (mortality of larvae %), Drug resistant populations three days after the treatment ([2]; Rate 0.05 mg/pot, drug resistant populations): 60%; insecticidal effects against drug resistant Nilaparvata lugens ([2]; imidacloprid-resistant): high insecticidal effects; mortality of larvae against drug resistant populations compared with susceptible populations of Nilaparvata lugens ([2]; imidacloprid-resistant vs susceptible): equivalent mortality of larvae |
| CCN=C(N=c1ccccn1Cc1ccc(Cl)nc1)C(F)(F)F [Compound 1-43] | all the adults are agonized in death |  |
| CCCN=C(N=c1ccccn1Cc1ccc(Cl)nc1)C(F)(F)F [Compound 1-44] | all the adults are agonized in death |  |
| FC(F)(F)C(=NC1CC1)N=c1ccccn1Cc1ccc(Cl)nc1 [Compound 1-50] | all the adults are agonized in death |  |
| C#CCN=C(N=c1ccccn1Cc1ccc(Cl)nc1)C(F)(F)F [Compound 1-56] | all the adults are agonized in death |  |
| FC(F)(F)C(=NCc1ccccc1)N=c1ccccn1Cc1ccc(Cl)nc1 [Compound 1-72] | all the adults are agonized in death |  |
| FC(F)(F)C(=NCCOc1ccccc1)N=c1ccccn1Cc1ccc(Cl)nc1 [Compound 1-114] | all the adults are agonized in death |  |
| FC(F)(F)C(=NCc1ccccn1)N=c1ccccn1Cc1ccc(Cl)nc1 [Compound 1-118] | all the adults are agonized in death |  |
| FC(F)(F)C(=NCc1cccnc1)N=c1ccccn1Cc1ccc(Cl)nc1 [Compound 1-119] | all the adults are agonized in death |  |
| CSCCN=C(N=c1ccccn1Cc1ccc(Cl)nc1)C(F)(F)F [Compound 1-150] | all the adults are agonized in death |  |
| CON=C(N=c1ccccn1Cc1ccc(Cl)nc1)C(F)(F)F [Compound 1-500] | all the adults are agonized in death |  |
| C=CCON=C(/N=c1\ccccn1Cc1ccc(Cl)nc1)C(F)(F)F [Compound 1-507, N′-(aryloxy)-N-[1-((6-chloropyridin-3-yl)methyl)pyridin-2(1H)-ylidene]-2,2,2-trifluoroacetimidamide] |  | mortality at 100 ppm (Plutella xylostella): ≥ 80%; mortality at 20 ppm (Aphis gossypii): ≥ 80%; mortality at 100 ppm (Aphis gossypii): ≥ 80% |
| C#CCC(=O)ON=C(N=c1ccccn1Cc1ccc(Cl)nc1)C(F)(F)F [Compound 1-518] | all the adults are agonized in death |  |
| Cc1ccc(S(=O)(=O)ON=C(N=c2ccccn2Cc2ccc(Cl)nc2)C(F)(F)F)cc1 [Compound 1-531] | all the adults are agonized in death |  |
| CCCNC(=O)O/N=C(/N=c1\ccccn1Cc1ccc(Cl)nc1)C(F)(F)F [Compound 1-534, N-[1-((6-chloropyridin-3-yl)methyl)pyridin-2(1H)-ylidene]-2,2,2-trifluoro-N′-((propylcarbamoyl)oxy)acetimidamide] |  | mortality at 100 ppm (Plutella xylostella): ≥ 80% |

| Structure (SMILES) | activity against adults (effective when two adults were all agonized in death) (Musca domestica) | also measured |
| --- | --- | --- |
| FC(F)(F)C(=S)N=c1ccccn1Cc1cnc(Cl)s1 [Compound 2-20] | all the adults are agonized in death |  |
| O=C(/N=c1\ccccn1Cc1ccc(F)nc1)C(F)F [Compound 3-3, 2,2-difluoro-N-[1-((6-fluoropyridin-3-yl)methyl)pyridin-2(1H)-ylidene]acetamide] | all the adults are agonized in death | mortality at 10 ppm [3]: ≥ 80%; mortality at 100 ppm (Plutella xylostella): ≥ 80%; mortality at 100 ppm [4]: ≥ 80%; mortality at 20 ppm (Aphis gossypii): ≥ 80%; mortality at 100 ppm (Aphis gossypii): ≥ 80% |
| O=C(N=c1ccccn1Cc1ccc(F)nc1)C(F)(F)Cl [Compound 3-4] | all the adults are agonized in death |  |
| O=C(N=c1ccccn1Cc1ccc(F)nc1)C(F)(F)C(F)(F)F [Compound 3-5] | all the adults are agonized in death |  |
| O=C(N=c1ccccn1Cc1ccc(Br)nc1)C(F)F [Compound 4-3] | all the adults are agonized in death |  |
| O=C(N=c1ccccn1Cc1ccc(Br)nc1)C(F)(F)Cl [Compound 4-4] | all the adults are agonized in death |  |
| O=C(N=c1ccccn1Cc1ccc(Br)nc1)C(F)(F)C(F)(F)F [Compound 4-5] | all the adults are agonized in death |  |
| O=C(N=c1ccccn1Cc1cnc(Cl)c(F)c1)C(F)(F)Cl [Compound 5-4] | all the adults are agonized in death |  |
| O=C(N=c1ccccn1Cc1cnc(Cl)c(F)c1)C(F)(F)C(F)(F)F [Compound 5-5] | all the adults are agonized in death |  |
| O=C(N=c1ccccn1Cc1cnc(Cl)nc1)C(F)F [Compound 6-3] | all the adults are agonized in death |  |
| O=C(N=c1ccccn1Cc1cnc(Cl)nc1)C(F)(F)Cl [Compound 6-4] | all the adults are agonized in death |  |
| O=C(N=c1ccccn1Cc1cnc(Cl)nc1)C(F)(F)C(F)(F)F [Compound 6-5] | all the adults are agonized in death |  |
| O=C(/N=c1\ncccn1Cc1ccc(Cl)nc1)C(F)(F)F [Compound 190-2, N-[1-((6-chloropyridin-3-yl)methyl)pyrimidin-2(1H)-ylidene]-2,2,2-trifluoroacetamide] |  | mortality at 20 ppm (Aphis gossypii): ≥ 80%; mortality at 100 ppm (Aphis gossypii): ≥ 80% |
| O=C(N=c1cccnn1Cc1ccc(Cl)nc1)C(F)(F)F [Compound 223-2] | all the adults are agonized in death |  |
| O=[N+]([O-])NC1=NCCN1Cc1ccc(Cl)nc1 [Imidacloprid] |  | Insecticidal effects against Nilaparvata lugens (mortality of larvae %), Susceptible populations three days after the treatment ([1]; Rate 0.01 mg/pot): 73%; Insecticidal effects against Nilaparvata lugens (mortality of larvae %), Susceptible populations three days after the treatment ([1]; Rate 0.05 mg/pot): 90% |

Reference: US20150005347A1, “NITROGEN-CONTAINING HETEROCYCLIC DERIVATIVE HAVING 2-IMINO GROUP AND PEST CONTROL AGENT INCLUDING THE SAME” (MEIJI SEIKA PHARMA CO., LTD., priority 2012, published 2015)
